Laboratory results from publication PMC7725003, “Systematically Studying the Optimal Amino Acid Distribution Patterns of the Amphiphilic Structure by Using the Ultrashort Amphiphiles” (Frontiers in Microbiology, 2020).
Where no end group is shown, it is not given here.

Columns and labels:
[1] = system: S. aureus 29213; experiment: Salt sensitivity assay (MIC); type: cell-based, Staphylococcus aureus; details: for MIC, FeCl3: 4 μM FeCl3; for MIC, NH4Cl: 6 μM NH4Cl; for MIC, ZnCl2: 8 μM ZnCl2; for MIC, MgCl2: 1 mM MgCl2; for MIC, CaCl2: 2 mM CaCl2; for MIC, KCl: 4.5 mM KCl; for MIC, NaCl: 150 mM NaCl; for MIC, Control: no added salt, three independent assays
How it was run: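 MICs determined by broth microdilution in MHB with 0.5–1 × 10^6 CFU/mL, peptides serially diluted in 0.2% BSA, 24 h at 37°C. Medium supplemented with physiological salts (150 mM NaCl, 4.5 mM KCl, 6 μM NH4Cl, 8 μM ZnCl2, 1 mM MgCl2, 2mM CaCl2, 4 μM FeCl3). MIC = lowest concentration inhibiting 95% growth (A492).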

[2] = system: E. coli ATCC 25922; experiment: Salt sensitivity assay (MIC); type: cell-based, Escherichia coli; details: for MIC, FeCl3: 4 μM FeCl3; for MIC, NH4Cl: 6 μM NH4Cl; for MIC, ZnCl2: 8 μM ZnCl2; for MIC, MgCl2: 1 mM MgCl2; for MIC, CaCl2: 2 mM CaCl2; for MIC, KCl: 4.5 mM KCl; for MIC, NaCl: 150 mM NaCl; for MIC, Control: no added salt, three independent assays
How it was run: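 The salt sensitivity of peptides was tested against E. coli ATCC 25922 using a modified NCCLS broth microdilution MIC method. Mid-log bacteria were diluted in MHB to 0.5–1 × 10^6 CFU mL^–1 and mixed in equal volumes with peptides serially diluted in 0.2% BSA in 96-well plates. Physiological salt was added where specified, and the assay was done three independent times.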

[3] = system: MRSA 43300; type: cell-based, methicillin-resistant S. aureus; details: 43300, 24 h
How it was run: (§1)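 Bacteria were grown to mid-log phase and diluted in MHB to 0.5–1 × 10^6 CFU mL^–1. Serial peptide dilutions in 0.2% BSA were added at equal volume and plates incubated 24 h at 37°C. Growth inhibition of 95% at 492 nm defined the MIC.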

[4] = system: Gram-negative bacteria; details: geometric mean of MBCs, 9 Gram-negative strains (Table 2)
[5] = system: S. typhimurium 7731; type: cell-based, Salmonella typhimurium; details: 7731, 24 h
How it was run: as §1

[6] = system: S. typhimurium 14028; type: cell-based, Salmonella typhimurium; details: 14028, 24 h
How it was run: as §1

[7] = system: S. aureus 29213; type: cell-based, Staphylococcus aureus; details: 29213, 24 h
How it was run: as §1

[8] = system: S. aureus 25923; type: cell-based, Staphylococcus aureus; details: 25923, 24 h
How it was run: as §1

[9] = system: all of the tested bacterial strains; experiment: Geometric mean of MICs, all tested bacterial strains; type: cell-based; details: for GM, All: geometric mean of MICs across all tested strains; for TI, All: therapeutic index TI = MHC/GM MIC
How it was run: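 Mid-log bacteria at 0.5–1 × 10^6 CFU mL^–1 in MHB with peptides serially diluted in 0.2% BSA, 24 h at 37°C. MIC is the lowest concentration giving 95% growth inhibition by A492. MBC is the lowest giving >99.9% kill on agar subculture, and the GM is taken over all strains.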

[10] = system: Gram-positive bacteria; details: for GM MIC: geometric mean of MICs, 7 Gram-positive strains (Table 2); for TI, Gram-positive bacteria: therapeutic index TI = MHC/GM MIC
How it was run: (§2)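 Broth microdilution adapted from NCCLS: mid-log bacteria diluted in MHB to 0.5–1 × 10^6 CFU mL^–1, mixed with peptides serially diluted in 0.2% BSA. After 24 h at 37°C, MIC taken as the lowest concentration inhibiting 95% of growth by absorbance at 492 nm. Assays repeated more than 3 times.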

[11] = system: Gram-negative bacteria; details: for GM MIC: geometric mean of MICs, 9 Gram-negative strains (Table 2); for TI, Gram-negative bacteria: therapeutic index TI = MHC/GM MIC
How it was run: as §2

[12] = system: Gram-positive bacteria; details: geometric mean of MBCs, 7 Gram-positive strains (Table 2)
[13] = system: E. coli K88; details: for MIC: MHB, 24 h 37°C, 95% growth inhibition; for MBC: value in brackets, >99.9% of cells killed
Method: (§3) The antimicrobial activities of the peptides were measured using a method adapted from the National Committee for Clinical Laboratory Standards (NCCLS) with some modifications ([Chou et al., 2016]). The specific procedure for these assays has been previously described. In brief, the bacterial cells were grown to a mid-logarithmic phase and diluted in MHB to an ultimate concentration of 0.5–1 × 10^6 CFU mL^–1. Subsequently, the peptides were consecutively diluted in a 0.2% BSA solution and then added to a bacterial solution in a 96-well plate at identical volumes. After incubation for 24 h at 37°C, the MICs were determined to be the lowest peptide concentration that inhibited 95% of the bacterial growth by monitoring the absorbance at 492 nm using a microplate reader. Subsequently, 50 μL of each incubation mixture was further transferred to agar plates and incubated overnight. […] Every assay was reproduced more than 3 times.

[14] = system: E. coli K99; details: for MIC: MHB, 24 h 37°C, 95% growth inhibition; for MBC: value in brackets, >99.9% of cells killed
Method: as §3

[15] = system: P. aeruginosa 27853; type: cell-based, Pseudomonas aeruginosa; details: 27853, 24 h
How it was run: as §1

[16] = system: S. pullorum 7913; type: cell-based, Salmonella pullorum; details: 7913, 24 h
How it was run: as §1

[17] = system: E. faecalis 29212; type: cell-based, Enterococcus faecalis; details: 29212, 24 h
How it was run: as §1

[18] = system: B. subtilis 63501; type: cell-based, Bacillus subtilis; details: 63501, 24 h
How it was run: as §1

[19] = system: S. epidermidis 12228; type: cell-based, Staphylococcus epidermidis; details: 12228, 24 h
How it was run: as §1

[20] = system: Listeria monocytogenes CGMCC 1.1075; type: cell-based; details: CGMCC 1.1075, 24 h
How it was run: as §1

[21] = system: E. coli O78; type: cell-based, Escherichia coli; details: O78, 24 h
How it was run: as §1

[22] = system: E. coli 25922; type: cell-based, Escherichia coli; details: 25922, 24 h
How it was run: as §1

[23] = system: E. coli UB1005; type: cell-based, Escherichia coli; details: UB1005, 24 h
How it was run: as §1

LRRLRLRLL-NH2 [L3]
32 µM: MIC, MgCl2 [2] | MIC, CaCl2 [2] | MIC, NaCl [2] | MIC [5] | MBC [14] | MBC [20] | MBC [21] | MBC [23]
78.02 µM: GM MBC [12]
32.00 µM: GM, All [9]
37.33 µM: GM MBC [4]
128 µM: MBC [6] | MBC [15]
8 µM: MIC, KCl [2] | MIC, Control [2] | MIC [13] | MIC [16] | MIC [18] | MIC [22]
13.72: TI, Gram-negative bacteria [11]
> 64 µM: MIC, FeCl3 [1] | MIC, NH4Cl [1] | MIC, ZnCl2 [1] | MIC, MgCl2 [1] | MIC, CaCl2 [1] | MIC, KCl [1] | MIC, NaCl [1] | MIC, Control [1] | MIC [8] | MIC [17] | MIC [19]
64.00 µM: GM MIC [10]
>64 µM: MIC [3] | MIC [7]
18.66 µM: GM MIC [11]
4.00: TI, Gram-positive bacteria [10]
16 µM: MIC, FeCl3 [2] | MIC, NH4Cl [2] | MIC, ZnCl2 [2] | MBC [13] | MIC [14] | MBC [16] | MBC [18] | MIC [20] | MIC [21] | MBC [22] | MIC [23]
8.00: TI, All [9]
64 µM: MBC [5] | MIC [6] | MIC [15]

LRRRLLLLR-NH2 [L6]
128.00 µM: GM MBC [4]
> 64 µM: MIC, FeCl3 [1] | MIC, NH4Cl [1] | MIC, ZnCl2 [1] | MIC, MgCl2 [1] | MIC, CaCl2 [1] | MIC, KCl [1] | MIC, NaCl [1] | MIC, Control [1] | MIC, FeCl3 [2] | MIC, NH4Cl [2] | MIC, ZnCl2 [2] | MIC, MgCl2 [2] | MIC, CaCl2 [2] | MIC, KCl [2] | MIC, NaCl [2] | MIC, Control [2] | MIC [5] | MIC [6] | MIC [8] | MIC [15] | MIC [17] | MIC [19] | MIC [22]
64 µM: MIC [13] | MIC [14] | MBC [18] | MIC [21]
103.07 µM: GM, All [9]
105.00 µM: GM MIC [10]
2.48: TI, All [9]
2.52: TI, Gram-negative bacteria [11]
101.59 µM: GM MIC [11]
>64 µM: MIC [3] | MIC [7] | MIC [16] | MIC [20] | MIC [23]
2.44: TI, Gram-positive bacteria [10]
128 µM: MBC [13] | MBC [14] | MBC [21]
32 µM: MIC [18]
115.93 µM: GM MBC [12]
